Earlier results as cited in patent US20100247673A1, “Thyroid protection in sickle cell anemia treatment” (priority 2009, published 2010).

Tested on: erythrocytes
Details: about 4 mols incorporated per mol of hemoglobin tetramer

N#C[O-].[K+] [potassium cyanate]
erythrocytes prevented from sickling: up to 80%
